Data taken from patent publication US20100120752A1, “MUSCARINIC AGONISTS TO TREAT IMPULSE CONTROL DISORDERS” (Solvay Pharmaceuticals, B.V., priority 2007, published 2010).

What was measured:
Male Wistar rats = assay: 5-Choice Serial Reaction Time task, xanomeline or desmethylclozapine alone; assay type: in vivo, rat; settings: for number of anticipatory responses / number of correct responses / number of fault responses / number of missed responses / percentage of correct responses / persevering responses / total number of responses: ±S.E.M.; for effect on number of anticipatory responses: at 10 mg/kg, table 2
From the text: (§1) Male Wistar rats weighing 330-450 g (Harlan, The Netherlands) were housed in pairs under a 12-h light/dark cycle (lights off at 7:00 a.m.) and had daily access to a limited amount of food that kept their body weight at approximately 85% of the free feeding weight. Water was available ad libitum. All procedures were in compliance with the European Communities Council Directive of Nov. 24, 1986 (86/609 EEC).
(§2) Standard 5-CSRT boxes from MED associates Inc. Georgia, Vt. US were used. The curved wall of the chamber contained five 1.6 cm2 holes, 2.2 cm deep, 2 cm above floor level. […] In every hole a yellow stimulus light was presented. A food dispenser was located at the opposite wall. The box was illuminated by a 28 Volt 100 mA house light. The 5-CSRT boxes were placed in sound attenuating cubicles. On-line control of the apparatus and data collection were performed by a MED-PC experimental apparatus programming system (Tatham, 1989), running on a Dell Optiplex GX1 PC.
(§3) Rats were first trained to collect reinforcement pellets from the food dispenser and to collect reinforcements that were placed in the 5 holes in order to habituate the animals to the 5-CSRT task apparatus. Next, training of the 5-CSRT task started. These sessions started by illumination of the light in one of the holes for 30 seconds (stimulus duration). A response by the rat into the illuminated hole or a response in that particular hole for a short period of time after the illumination (the limited hold 60 sec) was rewarded with the delivery of a food pellet, termination of the trial and a correct response was recorded. The light stimulus was presented in each of the holes 20 times during a session (total of 100 presentations), and the order of presentations was randomized. […] After termination of the trial a variable inter-trial interval was started (1, 3, 5, 7 or 9 sec) after which the next trial was started. Upon reaching a 75% correct performance level the duration of illumination of the light stimulus was reduced until a presentation of 0.5 sec (from 30 to 20, 10, 5, 2, 1, 0.9; 0.8; 0.7; 0.6; 0.5.) and a limited hold of 5 sec (in three steps from 30 to 20, 10 and 5 sec), was reached. (Robbins, 1993).
(§4) The following parameters were measured (Muir, 1996):
(§5) Accuracy: the percentage correct responses divided by the total responses made.
(§6) Errors of omission: the number of missed stimulus presentations.
(§7) Correct responses: the number of correct responses.
(§8) Fault responses: the number of responses in the wrong hole.
(§9) Anticipatory responses: the number of premature responses made preceding the presentation of the light stimulus.
(§10) Persevering responses: responses emitted after an incorrect or correct response.
Xanomeline, a mixed muscarine-M1 and muscarine-M4 agonist, and desmethylclozapine, a muscarinic-M1 agonist and muscarinic-M4 antagonist, were each tested in a Latin hexagon design, meaning that each rat received all test-dosages (0, 1, 3 and 10 mg/kg i.p.) in a random order.

[1] = system: MK801 induced increase of anticipatory responses of rats; assay: 5-Choice Serial Reaction Time task, interaction studies against MK801; assay type: in vivo, rat; settings: for % correct resp / nr anticipatory resp / nr of correct resp / nr of fault resp / nr of missed resp / persevering resp / total nr of resp: ±SEM; for effect on increase in anticipatory responses induced by MK801 / effect on increase in persevering responses induced by MK801: table 3
From the text: as §1, §2, §3, §4, §5, §6, §7, §8, §9, §10
Both xanomeline and desmethylclozapine were each tested in the same dose range against 0.05 mg/kg (s.c.) MK801, a dose shown to elicit unequivocal impulsive behavior (see Table 1).

[2] = 1 mg/kg against 0.05 mg/kg (s.c.) MK801
[3] = 3 mg/kg against 0.05 mg/kg (s.c.) MK801
[4] = 10 mg/kg against 0.05 mg/kg (s.c.) MK801

Clc1ccc2c(c1)N=C(N1CCNCC1)c1ccccc1N2 [desmethylclozapine]
number of anticipatory responses (Male Wistar rats; 1 mg/kg i.p.): 50.2 ± 4.9 | number of correct responses (Male Wistar rats; 1 mg/kg i.p.): 52.2 ± 3.2 | number of fault responses (Male Wistar rats; 1 mg/kg i.p.): 19.4 ± 2.2 | number of missed responses (Male Wistar rats; 1 mg/kg i.p.): 28.4 ± 3.2 | percentage of correct responses (Male Wistar rats; 1 mg/kg i.p.): 72.9 ± 3.1% | persevering responses (Male Wistar rats; 1 mg/kg i.p.): 7.8 ± 1.4 | total number of responses (Male Wistar rats; 1 mg/kg i.p.): 71.6 ± 3.2 | number of anticipatory responses (Male Wistar rats; 3 mg/kg i.p.): 51.3 ± 7.5 | number of correct responses (Male Wistar rats; 3 mg/kg i.p.): 51.9 ± 3.1 | number of fault responses (Male Wistar rats; 3 mg/kg i.p.): 20.1 ± 2.2 | number of missed responses (Male Wistar rats; 3 mg/kg i.p.): 28.0 ± 2.2 | percentage of correct responses (Male Wistar rats; 3 mg/kg i.p.): 71.9 ± 3.2% | persevering responses (Male Wistar rats; 3 mg/kg i.p.): 8.8 ± 1.2 | total number of responses (Male Wistar rats; 3 mg/kg i.p.): 72.0 ± 2.2 | number of anticipatory responses (Male Wistar rats; 10 mg/kg i.p.): 34.5 ± 3.9 | number of correct responses (Male Wistar rats; 10 mg/kg i.p.): 48.5 ± 3.9 | number of fault responses (Male Wistar rats; 10 mg/kg i.p.): 17.5 ± 2.0 | number of missed responses (Male Wistar rats; 10 mg/kg i.p.): 34.0 ± 2.9 | percentage of correct responses (Male Wistar rats; 10 mg/kg i.p.): 72.6 ± 3.6% | persevering responses (Male Wistar rats; 10 mg/kg i.p.): 5.5 ± 0.9 | total number of responses (Male Wistar rats; 10 mg/kg i.p.): 66.0 ± 2.9 | effect on number of anticipatory responses (Male Wistar rats): reduced | % correct resp [1, 2]: 67.2 ± 2.6% | nr anticipatory resp [1, 2]: 141.8 ± 20.8 | nr of correct resp [1, 2]: 52.5 ± 3.4 | nr of fault resp [1, 2]: 25.1 ± 1.9 | nr of missed resp [1, 2]: 22.4 ± 3.1 | persevering resp [1, 2]: 24.8 ± 2.8 | total nr of resp [1, 2]: 77.6 ± 3.1 | % correct resp [1, 3]: 69.6 ± 2.6% | nr anticipatory resp [1, 3]: 104.3 ± 18.4 | nr of correct resp [1, 3]: 55.2 ± 2.8 | nr of fault resp [1, 3]: 24.4 ± 2.4 | nr of missed resp [1, 3]: 20.4 ± 3.6 | persevering resp [1, 3]: 16.3 ± 2.1 | total nr of resp [1, 3]: 79.6 ± 3.6 | % correct resp [1, 4]: 70.1 ± 3.1% | nr anticipatory resp [1, 4]: 78.6 ± 14.5 | nr of correct resp [1, 4]: 52.7 ± 3.9 | nr of fault resp [1, 4]: 21.6 ± 2.0 | nr of missed resp [1, 4]: 25.8 ± 3.7 | persevering resp [1, 4]: 17.3 ± 3.4 | total nr of resp [1, 4]: 74.3 ± 3.7 | effect on increase in anticipatory responses induced by MK801 [1]: antagonize | effect on increase in persevering responses induced by MK801 [1]: antagonize

CCCCCCOc1nsnc1C1=CCCN(C)C1 [xanomeline]
number of anticipatory responses (Male Wistar rats; 1 mg/kg i.p.): 58.0 ± 7.9 | number of correct responses (Male Wistar rats; 1 mg/kg i.p.): 53.0 ± 2.4 | number of fault responses (Male Wistar rats; 1 mg/kg i.p.): 22.7 ± 1.6 | number of missed responses (Male Wistar rats; 1 mg/kg i.p.): 24.3 ± 2.4 | percentage of correct responses (Male Wistar rats; 1 mg/kg i.p.): 70.0 ± 2.1% | persevering responses (Male Wistar rats; 1 mg/kg i.p.): 6.3 ± 1.1 | total number of responses (Male Wistar rats; 1 mg/kg i.p.): 75.1 ± 2.4 | number of anticipatory responses (Male Wistar rats; 3 mg/kg i.p.): 60.8 ± 4.9 | number of correct responses (Male Wistar rats; 3 mg/kg i.p.): 51.2 ± 2.5 | number of fault responses (Male Wistar rats; 3 mg/kg i.p.): 21.7 ± 1.8 | number of missed responses (Male Wistar rats; 3 mg/kg i.p.): 27.2 ± 2.2 | percentage of correct responses (Male Wistar rats; 3 mg/kg i.p.): 70.2 ± 2.5% | persevering responses (Male Wistar rats; 3 mg/kg i.p.): 6.7 ± 1.4 | total number of responses (Male Wistar rats; 3 mg/kg i.p.): 72.8 ± 2.2 | number of anticipatory responses (Male Wistar rats; 10 mg/kg i.p.): 21.5 ± 6.4 | number of correct responses (Male Wistar rats; 10 mg/kg i.p.): 37.2 ± 2.6 | number of fault responses (Male Wistar rats; 10 mg/kg i.p.): 15.0 ± 1.8 | number of missed responses (Male Wistar rats; 10 mg/kg i.p.): 46.8 ± 3.7 | percentage of correct responses (Male Wistar rats; 10 mg/kg i.p.): 72.1 ± 2.3% | persevering responses (Male Wistar rats; 10 mg/kg i.p.): 4.9 ± 0.9 | total number of responses (Male Wistar rats; 10 mg/kg i.p.): 53.2 ± 3.7 | effect on number of anticipatory responses (Male Wistar rats): reduced | % correct resp [1, 2]: 70.2 ± 3.8% | nr anticipatory resp [1, 2]: 75.3 ± 10.5 | nr of correct resp [1, 2]: 58.7 ± 4.4 | nr of fault resp [1, 2]: 23.8 ± 2.4 | nr of missed resp [1, 2]: 17.6 ± 3.1 | persevering resp [1, 2]: 15.3 ± 2.5 | total nr of resp [1, 2]: 82.4 ± 3.1 | % correct resp [1, 3]: 71.6 ± 2.4% | nr anticipatory resp [1, 3]: 99.3 ± 11.1 | nr of correct resp [1, 3]: 57.4 ± 2.7 | nr of fault resp [1, 3]: 22.7 ± 1.9 | nr of missed resp [1, 3]: 19.9 ± 2.4 | persevering resp [1, 3]: 14.1 ± 3.5 | total nr of resp [1, 3]: 80.1 ± 2.4 | % correct resp [1, 4]: 74.4 ± 2.8% | nr anticipatory resp [1, 4]: 47.5 ± 8.4 | nr of correct resp [1, 4]: 50.9 ± 2.4 | nr of fault resp [1, 4]: 18.0 ± 2.2 | nr of missed resp [1, 4]: 31.1 ± 3.0 | persevering resp [1, 4]: 8.5 ± 1.1 | total nr of resp [1, 4]: 68.9 ± 3.0 | effect on increase in anticipatory responses induced by MK801 [1]: antagonize | effect on increase in persevering responses induced by MK801 [1]: antagonize
